Here are results for 2 compounds from US10851084B2, “Piperazine derivatives as TRPML modulators” (CalyGene Biotechnology, Inc., priority 2016, dated 2020).

In one test the test system is TFEB. In words: TFEB nuclear translocation assay. To be noted: HEK293 cells stably expressing GFP-TFEB; dose-dependent, FIG. 2. Type of test: cell-based. As for the experimental part: TFEB is a transcription factor and master regulator of lysosome biogenesis and autophagy. TFEB activation is shown to induce cellular clearance in a variety of LSDs and common neurodegenerative diseases.
Intracellular TFEB localization is determined either by immunofluorescence in Hela cells or by fluorescent microscopy in Hela cells stably expressing TFEB-GFP. Detailed procedures are as follows.
Cells grown on cover slips were treated with TRPML1 agonist(s) or antagonist(s) for indicated time period and then fixed with 4% paraformaldehyde for 15 minutes at room temperature. For immunofluorescent detection of endogenous TFEB, cells were permeabilized with 0.3% Triton X-100, blocked with 1% bovine serum albumin (BSA) in phosphate buffered saline (PBS) and then immunostained with anti-TFEB antibody (1:200; Cell Signaling Technology) at 4° C. for overnight. The stained cells were then incubated with secondary antibodies conjugated to Alexa Fluor 568 or 488 (ThermoFisher) for 1 h, then 4′,6-diamidino-2-phenylindole (DAPI) for 15 minutes (to stain the cell nucleus) and mounted on glass slides with Fluoromount-G (Southern Biotech) for observation. […]
Average ratios of nuclear versus cytosolic TFEB fluorescence intensity (>50 randomly-selected cells per experiment) were determined with ImageJ software (NIH).

The next test concerns HaCat cells. In words: UV treatment and ROS staining. Type of test: cell-based, human. As to conditions: 600 J/m^2 UV (254 nm), H2DCFDA, FIG. 3. The protocol: HaCat cells (a human keratinocyte cell line) at a confluency of around 50% were incubated with 20 µM H2DCFDA (Sigma) in the culture media without FBS at 37° C. for 30 min, and then washed twice with phosphate buffered saline (PBS, pH 7.4) before being exposed to UV. A CL-1000 UV Crosslinker (UVP) is used to shed 600 J/m^2 of UV light (254 nm) on the HaCat cells in all experiments. Fluorescent images were obtained right after UV exposure, via an Olympus IX73 microscopy (Olympus) and Metamorph software (Molecular Devices).

The next test concerns ML1-4A. As to conditions: HEK293 cells stably or transiently expressing ML1-4A; cited from earlier work.
The next test deals with TRPML1. To be noted: cited from earlier work.
A further test deals with T1, TRPML2 (Homo sapiens, UniProt Q8IZK6).
T1 sequence (Q8IZK6 1-566): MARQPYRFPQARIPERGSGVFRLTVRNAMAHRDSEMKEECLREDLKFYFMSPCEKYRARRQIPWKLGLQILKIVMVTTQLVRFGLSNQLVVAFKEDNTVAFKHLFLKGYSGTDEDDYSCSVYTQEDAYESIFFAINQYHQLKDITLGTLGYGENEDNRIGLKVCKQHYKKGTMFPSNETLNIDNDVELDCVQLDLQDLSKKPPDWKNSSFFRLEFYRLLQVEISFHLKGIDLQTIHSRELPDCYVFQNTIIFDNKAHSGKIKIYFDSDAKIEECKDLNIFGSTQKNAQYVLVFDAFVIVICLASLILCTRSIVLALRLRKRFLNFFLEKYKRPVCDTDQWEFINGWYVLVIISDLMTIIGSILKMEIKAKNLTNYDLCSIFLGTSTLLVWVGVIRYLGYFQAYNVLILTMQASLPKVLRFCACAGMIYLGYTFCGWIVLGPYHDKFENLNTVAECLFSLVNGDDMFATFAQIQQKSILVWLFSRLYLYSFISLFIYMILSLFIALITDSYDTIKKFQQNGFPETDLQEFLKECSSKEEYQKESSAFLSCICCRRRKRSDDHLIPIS
To be noted: cited from earlier work.

A further test deals with T2, TRPML3 (Homo sapiens, UniProt Q8TDD5).
T2 sequence (Q8TDD5 1-553): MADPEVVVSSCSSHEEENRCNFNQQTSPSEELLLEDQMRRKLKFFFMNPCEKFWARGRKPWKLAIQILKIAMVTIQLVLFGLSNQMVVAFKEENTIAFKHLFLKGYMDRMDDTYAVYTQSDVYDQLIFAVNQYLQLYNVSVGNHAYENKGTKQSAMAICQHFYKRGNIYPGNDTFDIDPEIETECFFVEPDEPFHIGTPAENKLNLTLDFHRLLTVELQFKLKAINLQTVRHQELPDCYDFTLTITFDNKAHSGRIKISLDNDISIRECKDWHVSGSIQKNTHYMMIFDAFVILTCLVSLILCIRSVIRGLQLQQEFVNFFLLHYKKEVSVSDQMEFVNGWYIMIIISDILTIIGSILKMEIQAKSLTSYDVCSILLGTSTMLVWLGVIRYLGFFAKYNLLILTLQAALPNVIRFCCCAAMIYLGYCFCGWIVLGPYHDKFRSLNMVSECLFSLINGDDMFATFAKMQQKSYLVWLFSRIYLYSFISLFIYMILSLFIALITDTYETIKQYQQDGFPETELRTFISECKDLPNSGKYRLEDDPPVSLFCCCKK
To be noted: cited from earlier work.

Test [1] has as its system six other related channels. To be noted: cited from earlier work.
Test [2] deals with T3, endogenous whole-endolysosome TRPML-like current (IML-L) (Homo sapiens, UniProt Q9GZU1).
T3 construct: host or cells: endogenous in human fibroblasts (WT and ML4); also CHO, Cos-1, HEK293, skeletal muscle, pancreatic β and macrophage cells
To be noted: wild-type (WT; ML1+/+) human fibroblasts; cited from earlier work.

In test [3] the test system is endogenous whole-endolysosome TRPML-like current (IML-L). As to conditions: cited from earlier work.
A further test deals with TRPMLs. To be noted: cited from earlier work.

T3 sequence (Q9GZU1 whole entry): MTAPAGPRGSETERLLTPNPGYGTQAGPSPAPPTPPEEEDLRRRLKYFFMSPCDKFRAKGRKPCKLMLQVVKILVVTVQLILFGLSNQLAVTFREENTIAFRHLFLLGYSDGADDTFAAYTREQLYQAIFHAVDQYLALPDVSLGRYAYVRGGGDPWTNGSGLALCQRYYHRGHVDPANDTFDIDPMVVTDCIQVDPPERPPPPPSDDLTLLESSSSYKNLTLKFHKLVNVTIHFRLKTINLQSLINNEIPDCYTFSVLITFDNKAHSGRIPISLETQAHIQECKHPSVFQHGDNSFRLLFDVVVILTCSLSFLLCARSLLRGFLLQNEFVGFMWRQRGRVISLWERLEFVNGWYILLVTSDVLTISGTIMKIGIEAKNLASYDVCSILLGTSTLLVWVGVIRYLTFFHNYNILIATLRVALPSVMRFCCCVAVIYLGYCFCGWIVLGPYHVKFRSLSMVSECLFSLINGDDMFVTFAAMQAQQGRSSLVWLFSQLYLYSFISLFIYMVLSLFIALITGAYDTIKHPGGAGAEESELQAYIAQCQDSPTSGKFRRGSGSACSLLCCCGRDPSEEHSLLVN

As to `CN(C)S(=O)(=O)c1ccc(S(=O)(=O)Nc2ccccc2N2CCN(c3ccc(Cl)cc3F)CC2)cc1` [Example 8, N1-[2-[4-(4-Chloro-2-fluorophenyl)-1-piperazinyl]phenyl]-N4,N4-dimethylbenzene-1,4-disulfonamide], the “TFEB-nuclear translocation (nuclear to cytosol ratio)” value in the test on TFEB is “sufficient to induce TFEB-nuclear translocation”. For the same compound, the “UV induced ROS” value in the test on HaCat cells was “significantly reduced”.
Consider `CC1CC(C)(C)N(C(=O)CN2C(=O)c3ccccc3C2=O)c2ccccc21` (stereo not shown) [ML-SA1], for which, in the test with ML1-4A, the “[Ca2+]cyt increases” value was “significant”. Also, the “activation of whole-endolysosome IML1 compared with PI(3,5)P2 (1 μM)” value in the test on TRPML1 (ML-SA1 10 μM) is listed as “comparable”. Moreover, the “activation of whole-cell IML1-4A” value in the test with TRPML1 (whole-cell) is reported as “robustly activated”. In addition, in the test on TRPML1 (whole-endolysosome), the “activation of whole-endolysosome IML1” value is recorded as “robustly activated”. On TRPML2, the “activation of whole-cell ITRPML2” value is listed as “activated”. Further, the “activation of whole-cell ITRPML3” value at TRPML3 was “activated”. For the same compound, in [1], the “activation of six other related channels” value is reported as “not”. Besides, the entries for the “activation of whole-endolysosome IML-L” value in [2] and in test [3] (ML4 (ML1−/−) human fibroblasts) were “activated” and “not”, respectively. Also, the “activation of endogenous whole-endolysosome IML-L” value in [3] (all mammalian cell types investigated (CHO, Cos-1, HEK293, skeletal muscle, pancreatic β, macrophage cells)) was “activated”. Also, the “concentration needed to effectively activate TRPMLs” value in the test on TRPMLs is approximately 10 µM.
